According to ChEMBL document CHEMBL5537115, “New broad-spectrum and potent antibacterial agents with dual-targeting mechanism: Promoting FtsZ polymerization and disrupting bacterial membranes” (Eur J Med Chem, 2024):
In brackets after ≈: the same amount, converted by molar mass.

How the values were obtained:
Assay type in all cases: functional
Streptococcus pyogenes [1] = experiment: Antibacterial activity against erythromycin-resistant Streptococcus pyogenes 2 clinical isolate assessed as bacterial growth inhibition incubated for 20 hrs by CLSI based broth microdilution method
Staphylococcus aureus [2] = experiment: Antibacterial activity against penicillin-resistant Staphylococcus aureus ATCC31007 assessed as bacterial growth inhibition incubated for 20 hrs by CLSI based broth microdilution method
Enterococcus faecium [3] = experiment: Antibacterial activity against vancomycin-susceptible Enterococcus faecium ATCC19434 assessed as bacterial growth inhibition incubated for 20 hrs by CLSI based broth microdilution method
[4] = tested on: Staphylococcus epidermidis; experiment: Antibacterial activity against penicillin-resistant Staphylococcus epidermidis clinical isolate assessed as bacterial growth inhibition incubated for 20 hrs by CLSI based broth microdilution method
Acinetobacter baumannii = experiment: Antibacterial activity against Acinetobacter baumannii ATCC19606 assessed as bacterial growth inhibition incubated for 20 hrs by CLSI based broth microdilution method
Bacillus subtilis = experiment: Antibacterial activity against penicillin-susceptible Bacillus subtilis ATCC9372 assessed as bacterial growth inhibition incubated for 20 hrs by CLSI based broth microdilution method
Streptococcus pyogenes [5] = experiment: Antibacterial activity against erythromycin-susceptible Streptococcus pyogenes 1 assessed as bacterial growth inhibition incubated for 20 hrs by CLSI based broth microdilution method
Staphylococcus aureus [6] = experiment: Antibacterial activity against methicillin-resistant Staphylococcus aureus ATCC43300 assessed as bacterial growth inhibition incubated for 20 hrs by CLSI based broth microdilution method
Bacillus pumilus = experiment: Antibacterial activity against penicillin-susceptible Bacillus pumilus CMCC63202 assessed as bacterial growth inhibition incubated for 20 hrs by CLSI based broth microdilution method
Klebsiella pneumoniae = experiment: Antibacterial activity against Klebsiella pneumoniae ATCC BAA-1902 assessed as bacterial growth inhibition incubated for 20 hrs by CLSI based broth microdilution method
Staphylococcus aureus [7] = experiment: Antibacterial activity against erythromycin-susceptible Staphylococcus aureus ATCC25923 assessed as bacterial growth inhibition incubated for 20 hrs by CLSI based broth microdilution method
Enterococcus faecalis [8] = experiment: Antibacterial activity against vancomycin-resistant Enterococcus faecalis ATCC51299 assessed as bacterial growth inhibition incubated for 20 hrs by CLSI based broth microdilution method
Enterococcus faecalis [9] = experiment: Antibacterial activity against vancomycin-susceptible Enterococcus faecalis ATCC29212 assessed as bacterial growth inhibition incubated for 20 hrs by CLSI based broth microdilution method
Escherichia coli [10] = experiment: Antibacterial activity against wild-type Escherichia coli BW25113 assessed as bacterial growth inhibition incubated for 20 hrs by CLSI based broth microdilution method
Enterococcus faecium [11] = experiment: Antibacterial activity against vancomycin-resistant Enterococcus faecium ATCC51559 assessed as bacterial growth inhibition incubated for 20 hrs by CLSI based broth microdilution method
Escherichia coli [12] = experiment: Antibacterial activity against penicillin-susceptible Escherichia coli ATCC25922 assessed as bacterial growth inhibition incubated for 20 hrs by CLSI based broth microdilution method
Staphylococcus aureus [13] = experiment: Antibacterial activity against Staphylococcus aureus clinical isolate assessed as bacterial growth inhibition incubated for 20 hrs by CLSI based broth microdilution method

Structure (SMILES)	MIC (Streptococcus pyogenes [1]) [µg/mL]	MIC (Staphylococcus aureus [2]) [µg/mL]	MIC (Enterococcus faecium [3]) [µg/mL]	MIC [4] [µg/mL]	MIC (Acinetobacter baumannii) [µg/mL]	MIC (Bacillus subtilis) [µg/mL]	MIC (Streptococcus pyogenes [5]) [µg/mL]	MIC (Staphylococcus aureus [6]) [µg/mL]	MIC (Bacillus pumilus) [µg/mL]	MIC (Klebsiella pneumoniae) [µg/mL]	MIC (Staphylococcus aureus [7]) [µg/mL]	MIC (Enterococcus faecalis [8]) [µg/mL]	MIC (Enterococcus faecalis [9]) [µg/mL]	MIC (Escherichia coli [10]) [µg/mL]	MIC (Enterococcus faecium [11]) [µg/mL]	MIC (Escherichia coli [12]) [µg/mL]	MIC (Staphylococcus aureus [13]) [µg/mL]
C[n+]1cc(-c2ccccc2)cc(/C=C/c2ccc(F)cc2)c1-c1ccccc1.[I-]	8	64	64	64	32	8	8	8	32	> 64	2	> 64	64	> 64	64	> 64	8
COc1ccc(/C=C/c2cc(-c3ccccc3)c[n+](C)c2-c2ccccc2)cc1.[I-]	8	64	64	2	32	8	4	16	32	> 64	2	64	32	> 64	64	> 64	4
C[n+]1cc(-c2ccccc2)c(/C=C/c2ccc(N3CCCCC3)cc2)cc1-c1ccc(C(C)(C)C)cc1.[I-]	2	0.25	1	1	1	0.5	0.5	1	0.125	8	0.25	2	1	4	1	64	0.5
C[n+]1cc(-c2ccccc2)cc(/C=C/c2ccccc2[N+](=O)[O-])c1-c1ccccc1.I	16	> 64	> 64	64	64	16	16	32	64	> 64	8	> 64	> 64	> 64	> 64	> 64	32
C[n+]1cc(-c2ccccc2)c(/C=C/c2ccc(C(C)(C)C)cc2)cc1-c1ccc2ccccc2c1.[I-]	4	2	2	2	1	0.5	1	1	0.5	8	1	2	1	4	2	64	0.5
CC(=O)Nc1ccc(/C=C/c2cc(-c3ccc4ccccc4c3)[n+](C)cc2-c2ccccc2)cc1.[I-]	–	–	32	–	32	1	–	–	16	> 64	0.5	–	16	> 64	–	> 64	1
C[n+]1cc(-c2ccccc2)cc(/C=C/c2ccc(C(C)(C)C)cc2)c1-c1ccccc1.[I-]	2	4	2	2	4	0.5	8	1	2	32	0.25	1	4	16	2	16	2
CC1(C)S[C@@H]2[C@H](NC(=O)[C@H](NC(=O)N3CCN(S(C)(=O)=O)C3=O)c3ccccc3)C(=O)N2[C@H]1C(=O)O [MEZLOCILLIN]	< 0.062	> 64	16 (≈ 29.7 µM)	> 64	64 (≈ 119 µM)	4 (≈ 7.41 µM)	< 0.062	16 (≈ 29.7 µM)	2 (≈ 3.71 µM)	> 64	1 (≈ 1.85 µM)	> 64	2 (≈ 3.71 µM)	1 (≈ 1.85 µM)	> 64	1 (≈ 1.85 µM)	32 (≈ 59.3 µM)
CCCCCCOc1ccc(/C=C/c2cc(-c3ccccc3)c[n+](C)c2-c2ccccc2)cc1.[I-]	2	2	2	2	2	2	2	1	0.5	> 64	0.25	1	2	4	2	8	1
C[n+]1cc(-c2ccccc2)c(/C=C/c2ccc(F)cc2)cc1-c1ccccc1.[I-]	2	4	4	2	8	0.5	2	1	2	32	0.125	2	4	8	8	8	1
CCCCCCCOc1ccc(/C=C/c2cc(-c3ccccc3)c[n+](C)c2-c2ccccc2)cc1.[I-]	8	64	2	64	2	1	4	8	1	8	0.25	> 64	4	8	64	8	8
CN[C@H](CC(C)C)C(=O)N[C@H]1C(=O)N[C@@H](CC(N)=O)C(=O)N[C@H]2C(=O)N[C@H]3C(=O)N[C@H](C(=O)N[C@H](C(=O)O)c4cc(O)cc(O)c4-c4cc3ccc4O)[C@H](O)c3ccc(c(Cl)c3)Oc3cc2cc(c3O[C@@H]2O[C@H](CO)[C@@H](O)[C@H](O)[C@H]2O[C@H]2C[C@](C)(N)[C@H](O)[C@H](C)O2)Oc2ccc(cc2Cl)[C@H]1O [VANCOMYCIN]	1 (≈ 0.69 µM)	–	–	–	64 (≈ 44.2 µM)	0.5 (≈ 0.345 µM)	0.25 (≈ 0.173 µM)	–	2 (≈ 1.38 µM)	> 64	–	> 64	–	> 64	> 64	> 64	–
